Series [1] has as its system F32-TEM parasites (artemisinin-sensitive). The series is described as follows: Parasitemia monitoring with different treatment schedules, F32-TEM parasites. In kind it is cell-based, Plasmodium falciparum.
Series [2] in a line: Thermolysis of A8L in DMSO with or without hemin, LC-MS. Type of series: physicochemical. Particulars: 80 °C, 1 h. How it is done: Since a putative antimalarial mechanism of action of these hybrid drugs was the alkylation of heme within the parasite food vacuole, the reactivity of the hybrid having the lower IC50 value, namely A8L (Table 2), was evaluated in the presence (or absence) of heme. In the absence of any protease activity able to cleave the tripeptide fragment, the alkoxyamine C–O bond was stable at room temperature; thus, thermolysis was carried out in DMSO at 80 °C for 1 h under an air atmosphere to achieve a nearly complete reaction (88–90% of conversion of A8L). The reaction was monitored by LC-MS analysis, and products A–F were detected and quantified (Figure 4). […] Products B, C, and D, resulting from the capture of dioxygen by the alkyl radical, were the major ones, with yields of 30%, 13%, and 21%, respectively, with respect to the starting amount of A8L. B and C have already been detected as thermolysis products of uncoupled alkoxyamine.
In a test tube equipped with a magnetic stirrer, 20 μL of a stock solution of A8L (10 mM in DMSO) was added to 180 μL of DMSO. […] Retention times and detected m/z values (amu) were as follows: JP2310, 20.8 min, 758.5 (MH^+), 702.4 (fragment); A, 27.4 min, 615.4 (MH^+); B, 21.2 min, 629.3 (MH^+); C, 20.1 min, 631.4 (MH^+); D, 20.3 min, 647.3 (MH^+); F, 25.7 min, 613.3 (MH^+); hemin, 17.3 min, 616.2 (M^+).

Another series concerns F32-ART parasites. The experiment in a line: Parasitemia monitoring and parasite morphology upon drug exposure, F32-ART ring-stage parasites. Type of series: cell-based, Plasmodium falciparum. The settings on record: 48 h exposure. How it is done: (§1) The effect of hybrid compounds against Plasmodium parasites was assessed by the microscopic examination of parasite morphology upon drug exposure. For this purpose, parasites were synchronized at 0–4 h age by percoll-sorbitol treatment, 0–24 h age by sorbitol treatment, or at schizont stage by percoll treatment at the start of the experiment. Different treatment schedules were tested. In the case of multiple doses, parasite cultures were washed before each new drug addition.

The test system of series [3] is P. falciparum parasites at the schizont stage. The series is described as follows: Efficacy on the re-invasion step, post-percoll schizonts treated 15 h. In kind it is cell-based, Plasmodium falciparum. As for the experimental part: We wondered if this activity was due to a specific effect of the drug toward the schizont stage and re-invasion step of the parasite life cycle. However, treatment of parasites at the schizont stage for 15 h with A8L had no effect on parasite viability or development (Figure 8), highlighting that the mechanism of action of A8L has yet to be identified.
as §1

The nature of a further series: in vitro. In kind it is cell-based, African green monkey. Particulars: African green monkey, Cytotoxicity CC50. How it is done: (§2) IC50 values corresponding to 50% inhibition of P. falciparum growth were determined by SYBR Green assay, and the assessment of cytotoxicity was performed on Vero cells (cell line from the kidney of a normal adult African green monkey), as previously published. The selectivity index corresponded to the cytotoxicity/activity ratio.

Series [4] concerns P. falciparum strain F32-ART (artemisinin-resistant). The series is described as follows: microbe, parasite or virus in culture. Type of series: cell-based, Plasmodium falciparum. Particulars: for IC50: Plasmodium falciparum.
Description: The antimalarial activity of peptide-alkoxyamine hybrids was first evaluated in the in vitro antiproliferative test (IC50) using the artemisinin-resistant strain F32-ART (Table 2, Table S1). The roles of the N-substitution of the alkoxyamine moiety (TEMPO- or DBNO-based, for example, A3L/A8L, line 1/line 10), of the configuration (L or D of the peptide, A3L/A3D, line 1/line 2), of the N-protection of the peptide (A3L/A4L or A5L, line 1/ lines 3 and 5) were examined. According to standard rules in the malaria field, only molecules having IC50 values below 1 μM were considered active.
The F32-ART (artemisinin-resistant) strain and the F32-TEM (artemisinin-sensitive strain) were cultured according to Trager and Jensen in RPMI 1640 medium (Fisher Scientific, Illkirch, France) supplemented with 5% human serum (Etablissement français du Sang, Toulouse, France) at 2% hematocrit with type O human blood (Etablissement français du Sang, Toulouse, France), 37 °C, and 5% CO2 in a humidified atmosphere.
as §2

The subject of series [5] is F32-ART parasites at the quiescent stage. The series is described as follows: Quiescent-stage Survival Assay (QSA). Type of series: cell-based, Plasmodium falciparum. Particulars: 700 nM DHA 6 h/(DHA + molecule 7 µM) 48 h. As for the experimental part:
In this assay, parasites were exposed to dihydroartemisinin (DHA) alone to induce quiescence, prior the addition of the drug to be tested for 48 h, and then the parasite recrudescence was monitored over a maximum of 4 weeks. Activity against quiescent parasites was evidenced by a delay in recrudescence time over 6 days between the conditions “DHA 6 h / DHA 48 h” and “DHA 6 h/(DHA + molecule) 48 h”. Atovaquone was used as a positive control, and its activity against quiescent parasites was here confirmed, as expected, by an extended delay of 11 days in recrudescence time (Figure 5). By contrast, no activity of A8L and A3L against quiescent parasites was evidenced in the QSA, with similar recrudescence time between the conditions “DHA 6 h/DHA 48 h” and “DHA 6 h/(DHA + molecule) 48 h”. […] To understand this phenomenon, we explored the parasite response during treatment with these hybrid compounds.
The QSA was performed according to Reyser et al.. Briefly, ART-resistant ring-stage parasites at 3% parasitemia were exposed for 6 h to 700 nM of DHA (dihydroartemisinin) to induce quiescence or were exposed to no drugs (control condition). After that, the compound to be tested was added in both conditions […]. At the end of the treatment, the drugs were washed off with RPMI-1640, and parasites were replaced in drug-free conditions. Blood smears were performed to follow parasitemia until the day the cultures reached their starting parasitemia, defined as the recrudescence day. If after 30 days no parasite recrudescence was observed, then the data were censored. Data analysis was performed using Kaplan–Meier survival curves. Statistical significance was ascertained by using a log-rank (Mantel-Cox) test using GraphPad Prism 7 software (San Diego, CA, USA).

Series [6] can be described thus: Kinetic analysis of alkoxyamine bond homolysis by EPR. In kind it is physicochemical. Particulars: Equation (2), A = 2.4 · 10^14 s^−1. How it is done:
The kinetic homolysis for peptide-alkoxyamines reported in Table 1 was recorded in EPR using two solvents, tert-butylbenzene (t-BuPh) or an n-propanol:water (1:1, v:v) mixture. The growth of nitroxide was recorded in the presence of an alkyl radical scavenger, i.e., O2 here, to suppress the back reaction (kc in Scheme 4), as already reported.
Homolysis rate constants kd are given by Equation (1) ([nitroxide]∞ = [alkoxyamine]0 = 0.1 mM), and the subsequent activation energy values Ea are given by Equation (2), as follows:(1) lnnitroxide∞−nitroxidet/nitroxide∞=−kd·t (2) Ea=−RTlnkd/A

Where two headings read alike, the source gives them in different places.

As usually defined, the CC50 is the concentration giving 50% cytotoxicity. A lower CC50 goes with harm at low concentration. One may read the IC50 as the concentration at which inhibition is half-maximal.

Consider `CC(ON(C(C)(C)C)C(C)(C)C)c1ccc(NC(=O)[C@H](Cc2ccccc2)NC(=O)[C@@H](NC(=O)[C@H](Cc2ccccc2)NC(=O)OC(C)(C)C)C(C)C)cc1` (stereo partly shown) [A8L], for which the “effect on parasite cell cycle” value in series [1] (F32-TEM, 5 µM 48 h) is on record as “cytostatic-like effect”. In addition, the “effect of repeated exposure for at least three days” value in series [1] (once or twice a day for three days) is listed as “elimination of parasites in a dose-dependent manner”. Besides, the “conversion of A8L on thermolysis” value was 88–89% in series [2] (A8L/hemin molar ratio 1/1) and 88–90% in series [2] (air, absence of hemin). For the same molecule, the “effect on parasitemia and parasite cell cycle” value in the series with F32-ART parasites is “cytostatic-like effect”. The “effect on parasite viability or development” value in series [3] is “no effect”. In “in vitro”, this molecule gave a cytotoxic concentration (CC50) above 50000 nM. Moreover, the IC50 was 270 ± 40 nM in series [4] (F32, read-out: Antiplasmodial Activity IC50, strain F32-ART, SYBR Green assay, mean ± SEM of 3 to 6 experiments) and 300 nM in series [4] (F32, read-out: Antiplasmodial IC50, strain F32-ART). For the same molecule, the “Selectivity Index CC50/IC50” value in series [4] (cytotoxicity (Vero cells)/antiplasmodial activity (F32-ART) ratio) was above 185. Also, the “activity against quiescent parasites in the QSA” value in series [5] is on record as “no activity”. Also, the “activation energy Ea” value in series [6] (in t-BuPh) and in series [6] (in water/n-PrOH 1/1 v/v) was 28.9 kcal/mol in each case.

The values above are taken from paper PMC10974622, “Hybrid Peptide-Alkoxyamine Drugs: A Strategy for the Development of a New Family of Antiplasmodial Drugs” (Molecules, 2024).
